Results on 57 molecules are retold here after patent publication US9718790B2, “Triazine derivative and pharmaceutical composition having an analgesic activity comprising the same” (SHIONOGI & CO., LTD., priority 2010, dated 2017).

Molecules are shown by their SMILES.

Sequence of human P2X3 receptor (P56373 whole entry): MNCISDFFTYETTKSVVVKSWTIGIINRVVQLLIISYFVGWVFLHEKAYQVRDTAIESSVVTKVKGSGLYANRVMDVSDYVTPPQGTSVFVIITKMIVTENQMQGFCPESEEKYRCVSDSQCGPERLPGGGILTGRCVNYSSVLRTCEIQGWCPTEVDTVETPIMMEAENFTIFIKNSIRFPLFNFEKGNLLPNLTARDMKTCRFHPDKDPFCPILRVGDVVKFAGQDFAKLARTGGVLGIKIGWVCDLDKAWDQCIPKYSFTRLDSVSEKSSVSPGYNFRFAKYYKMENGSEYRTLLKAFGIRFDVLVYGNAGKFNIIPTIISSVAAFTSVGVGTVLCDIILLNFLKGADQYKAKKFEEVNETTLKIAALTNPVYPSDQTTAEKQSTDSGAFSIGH

One test has as its target human P2X3 receptor (Homo sapiens (Human), UniProt P56373). Briefly: Evaluation of human P2X3 receptor inhibitory activity (Fluo-3 calcium fluorescence, FDSS 3000, ATP stimulation).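 Note: stimulus was 50 nM ATP with fluorescence followed for 3 min, and the response per well was peak post-ATP fluorescence divided by the reading at measurement start.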 The test is classed as cell-based. The settings on record: C6BU-1 cells stably expressing human P2X3 receptor.
In general, IC50 refers to the concentration that gives 50% inhibition. As for `CC(C)Oc1ccc(/N=c2\[nH]c(=O)n(CC(=O)NC3CCOCC3)c(=O)n2Cc2ccc(Cl)cc2)cc1Cl` [Compound I-0663], the IC50 turned out to be 5 nM.
For `CCOC(=O)CCn1c(=O)[nH]/c(=N\c2ccc(OC3CCC3)c(Cl)c2)n(Cc2ccc(Cl)cc2)c1=O` [Compound I-1330], the IC50 is 9 nM.
Same read-out and setting: as for `Cc1ccc(Cn2c(=O)n(C[C@H](C)C(=O)O)c(=O)[nH]/c2=N\c2ccc(OC3CCC3)cc2)cc1` [Compound I-1220], the figure is 13 nM.
On the same count and under the same terms, as for `Cc1cc(Oc2ccc(/N=c3\[nH]c(=O)n(C[C@H](O)CO)c(=O)n3Cc3ccc(Cl)cc3)cc2)ccn1` [Compound I-1987], the figure is 7 nM.
On the same count and under the same terms, as for `CCOC(=O)CCn1c(=O)[nH]/c(=N\c2ccc(Oc3cccc(F)c3)cc2)n(Cc2ccc(Cl)cc2)c1=O` [Compound I-1937], the figure is 22 nM; as for `CC(C)Oc1cccc(Cn2c(=O)n(Cc3ccc(Cl)cc3)c(=O)n(C(C)C)c2=O)c1` [Compound I-1292], 445 nM; as for `CC(C)Oc1ccc(/N=c2\[nH]c(=O)n(C[C@H](O)CO)c(=O)n2Cc2ccc(Cl)cc2)cc1Cl` [Compound I-0638, (R)-1-(4-chlorobenzyl)6-(3-chloro-4-isopropoxyphenylamino)-3-(2,3-dihydroxypropyl)-1,3,5-triazinane-2,4-dion], 6 nM.
As to `CCn1c(=O)[nH]/c(=N\c2ccc(Oc3cccc(C(=O)OC)n3)cc2)n(Cc2ccc(C)cc2)c1=O` [Compound I-2180], the IC50 amounted to 11 nM.
Same read-out and setting: as for `Cc1ccc(Cn2c(=O)n(C[C@H](C)C(=O)O)c(=O)[nH]/c2=N\c2ccc3nc(C)ccc3c2)cc1` [Compound I-1278], the figure is 33 nM.
As to `O=C(O)CCn1c(=O)[nH]/c(=N\c2ccc(Oc3cccnc3)cc2)n(Cc2ccc(Cl)cc2)c1=O` [Compound I-1206], the concentration for half-maximal inhibition (IC50) was determined as 43 nM.
Still for that read-out and setting: as for `CC[C@H](CC(=O)O)n1c(=O)[nH]/c(=N\c2ccc(OC(C)C)c(C)c2)n(Cc2ccc(Cl)cc2)c1=O` [Compound I-0799], the figure is 281 nM; as for `CCc1nc2ccc(/N=c3\[nH]c(=O)n(CCCCC(=O)OC)c(=O)n3Cc3ccc(Cl)cc3)cc2s1` [Compound I-2183], 1 nM.
On the same count and under the same terms, as for `COC(=O)[C@H](C)[C@H](C)n1c(=O)[nH]/c(=N\c2ccc(CC(C)C)c(Cl)c2)n(Cc2ccc(Cl)cc2)c1=O` [Compound I-1435], the figure is 61 nM; as for `CCCOc1ccc(/N=c2\[nH]c(=O)n(C(C)(C)CC(=O)OCC)c(=O)n2Cc2ccc(Cl)cc2)cc1` [Compound I-0821], 50 nM; as for `CCCCOc1ccc(/N=c2\[nH]c(=O)n(C[C@H](C)C(=O)O)c(=O)n2Cc2ccc(Cl)cc2)cc1` [Compound I-0819], 22 nM.
As to `COC(=O)[C@@H](C)[C@@H](C)n1c(=O)[nH]/c(=N\c2ccc(OCC3CC3)cc2)n(Cc2ccc(C)cc2)c1=O` [Compound I-1314], the IC50 was determined as 59 nM.
The same measure, in the same setting: the value for `CCn1c(=O)[nH]/c(=N\c2ccc3oc(C)c(CC(=O)O)c3c2)n(Cc2ccc(Cl)cc2)c1=O` [Compound I-2170] was 819 nM; that for `CO/N=C(\Cn1c(=O)[nH]/c(=N\c2ccc(OC(C)C)c(F)c2)n(Cc2ccc(Cl)cc2)c1=O)C(=O)O` [Compound I-0737, 1-(4-chlorobenzyl)-6-(3-fluoro-4-isopropoxyphenylimino)-3-(2-hydroxycarbonyl-2-methoxyiminoethyl)-1,3,5-triazinane-2,4-dion] was 140 nM; that for `CCn1c(=O)[nH]/c(=N\c2ccc(Oc3cccc(C(N)=O)n3)cc2)n(Cc2ccc(Cl)cc2)c1=O` [Compound I-2145] was 8 nM.
Still for that read-out and setting: the value for `CCCOc1ccc(/N=c2\[nH]c(=O)n([C@H](C)[C@H](C)C(=O)O)c(=O)n2Cc2ccc(C)cc2)cc1` [Compound I-1340] was 57 nM; that for `Cc1cc(Oc2ccc(/N=c3\[nH]c(=O)n(CCC(=O)O)c(=O)n3CC3CCC(C)CC3)cc2)ccn1` (stereo not drawn) [Compound I-1976] was 17 nM; that for `CCOC(=O)/C(Cn1c(=O)[nH]/c(=N\c2ccc(OC(C)C)c(F)c2)n(Cc2ccc(Cl)cc2)c1=O)=N/OC` [Compound I-0735, 1-(4-chlorobenzyl)-6-(3-fluoro-4-isopropoxyphenylimino)-3-(2-ethoxycarbonyl-2-methoxyiminoethyl)-1,3,5-triazinane-2,4-dion] was 7 nM.

Staying with this test, now noted: C6BU-1 cells stably expressing human P2X3 receptor, Fluo-3 fluorescence, FDSS 3000.
Take `CCn1c(=O)[nH]/c(=N\c2ccc(Oc3ccnc(C(=O)NC)c3)cc2)n(Cc2ccc(Cl)cc2)c1=O` [Compound I-1717]: the IC50 was 2 nM.
On the same count and under the same terms, the value for `COC(=O)[C@@H](C)Cn1c(=O)[nH]/c(=N\c2ccc(Br)cc2)n(Cc2ccc(C)cc2)c1=O` [Compound I-1076] was 177 nM.
The same measure, in the same setting: the value for `CCc1oc2ccc(/N=c3\[nH]c(=O)n(CCCC(=O)O)c(=O)n3Cc3ccc(C)cc3)cc2c1C` [Compound I-1630] was 15 nM; that for `CC[C@H](C)Oc1ccc(/N=c2\[nH]c(=O)n(C[C@H](C)C(=O)OC)c(=O)n2Cc2ccc(C)cc2)cc1Cl` [Compound I-1016] was 17 nM; that for `CC(=O)NCCn1c(=O)[nH]/c(=N\c2ccc(CC(C)C)c(Cl)c2)n(Cc2ccc(Cl)cc2)c1=O` [Compound I-1611] was 8 nM.
Still for that read-out and setting: the value for `CCn1c(=O)[nH]/c(=N\c2ccc(Oc3ccnc(O)c3)cc2)n(Cc2ccc(Cl)cc2)c1=O` [Compound I-1621] was 4 nM.
On to `CC[C@@H](C)Oc1ccc(/N=c2\[nH]c(=O)n([C@H](C)CC(=O)O)c(=O)n2Cc2ccc(C)cc2)cc1` [Compound I-0936], for which the half-inhibitory concentration (IC50) stood at 65 nM.
For `C[C@@H](C(=O)O)[C@H](C)n1c(=O)[nH]/c(=N\c2ccc3c(c2)CCCO3)n(Cc2ccc(Cl)cc2)c1=O` [Compound I-1820], the IC50 worked out at 204 nM.
On the same count and under the same terms, the value for `CCOC(=O)C1(Cn2c(=O)[nH]/c(=N\c3ccc(OCC)c(Cl)c3)n(Cc3ccc(Cl)cc3)c2=O)CC1` [Compound I-0918] was 14 nM.
On to `CCOC(=O)C1(Cn2c(=O)[nH]/c(=N\c3ccc(OC(C)C)cc3)n(Cc3ccc(Cl)cc3)c2=O)CC1` [Compound I-0987], for which the IC50 amounted to 15 nM.
On the same count and under the same terms, the value for `Cc1cc(/N=c2\[nH]c(=O)n(CC3(CC(=O)O)CC3)c(=O)n2Cc2ccc(Cl)cc2)ccc1OC(C)C` [Compound I-0982] was 17 nM.
Still for that read-out and setting: as for `Cc1ccc(Cn2c(=O)n(C[C@@H](C)C(=O)O)c(=O)[nH]/c2=N\c2ccc(OC(C)C)cc2)cc1` [Compound I-1105], the figure is 152 nM; as for `CC(C)=Cc1ccc(/N=c2\[nH]c(=O)n(C[C@H](C)C(=O)O)c(=O)n2Cc2ccc(C)cc2)cc1F` [Compound I-1174], 27 nM.
The same measure, in the same setting: the value for `C[C@@H](C(=O)O)[C@H](C)n1c(=O)[nH]/c(=N\c2ccc3[nH]c(=O)[nH]c(=O)c3c2)n(Cc2ccc(Cl)cc2)c1=O` [Compound I-1818] was 829 nM.

The test is the same for the next values; noted with them: human P2X3 receptor, Test Example 1.
Regarding `Cn1c(=O)[nH]/c(=N\c2ccc(Oc3cccc(C(=O)O)n3)c(F)c2)n(Cc2ccc(Cl)cc2)c1=O` [Compound I-2502], the IC50 was 7 nM.
The same measure, in the same setting: the value for `Cc1ccc(Cn2c(=O)n(CC3(C(=O)O)CC3)c(=O)[nH]/c2=N\c2ccc3nc(C)sc3c2)cc1` [Compound I-1554] was 14 nM; that for `Cc1ccc(Cn2c(=O)n(C[C@H](C)C(=O)O)c(=O)[nH]/c2=N\c2ccc(CC(C)C)cc2)cc1` [Compound I-0872] was 81 nM.
Still for that read-out and setting: as for `O=C(Cn1c(=O)[nH]/c(=N\c2ccc(Oc3cccc(F)n3)cc2)n(Cc2ccc(Cl)cc2)c1=O)NCCO` [Compound I-2679], the figure is 5 nM; as for `CCCOc1ccc(/N=c2\[nH]c(=O)n(CC(F)(F)C(=O)O)c(=O)n2Cc2ccc(C)cc2)cc1` [Compound I-0871], 40 nM.
As to `CC1(C)OCC(Cn2c(=O)[nH]/c(=N\c3ccc(Oc4ccon4)cc3)n(Cc3ccc(Cl)cc3)c2=O)CO1` [Compound I-2287], the IC50 was below 4 nM.
`N#Cc1cccc(Oc2ccc(/N=c3\[nH]c(=O)n(CCC(=O)O)c(=O)n3Cc3ccc(Cl)cc3)cc2)n1` [Compound I-2667]: the 50% inhibitory concentration (IC50) stood at 10 nM.
Still for that read-out and setting: as for `Cc1ccc(Cn2c(=O)n(C[C@H](C)C(=O)O)c(=O)[nH]/c2=N\c2ccc(OCC3CC3)cc2)cc1` [Compound I-0838], the figure is 33 nM; as for `O=C(O)Cn1c(=O)[nH]/c(=N\c2ccc(Oc3ccon3)c(F)c2)n(Cc2ccc(Cl)cc2)c1=O` [Compound I-2580], 204 nM.
Consider `O=C(Cn1c(=O)[nH]/c(=N\c2ccc(Oc3ncccn3)cc2)n(Cc2ccc(Cl)cc2)c1=O)NCCO` [Compound I-2688], for which the half-inhibitory concentration (IC50) amounted to 18 nM.
The same measure, in the same setting: the value for `COc1ccc(Oc2ccc(/N=c3\[nH]c(=O)n(C[C@H](C)C(=O)O)c(=O)n3Cc3ccc(C)cc3)cc2)cn1` [Compound I-1534] was 5 nM.
Still for that read-out and setting: as for `O=c1[nH]/c(=N\c2ccc(Oc3nccs3)cc2)n(Cc2ccc(F)cc2)c(=O)n1CCCO` [Compound I-2507], the figure is 35 nM.
Still for that read-out and setting: as for `O=C(O)CCn1c(=O)[nH]/c(=N\c2ccc(Oc3ncns3)cc2)n(Cc2ccc(Cl)cc2)c1=O` [Compound I-2698], the figure is 25 nM; as for `O=c1[nH]/c(=N\c2ccc(Oc3ncns3)cc2)n(Cc2ccc(Cl)cc2)c(=O)n1C[C@H](O)CO` [Compound I-2519], 4 nM; as for `O=c1[nH]/c(=N\c2ccc(Oc3ccon3)cc2)n(Cc2ccc(Cl)cc2)c(=O)n1CCOCCO` [Compound I-2490], 10 nM.
On to `COC(=O)c1cncc(Oc2ccc(/N=c3\[nH]c(=O)n(C4CC4)c(=O)n3Cc3ccc(Cl)cc3)cc2)c1` [Compound I-2308], for which the IC50 stood at 3 nM.
Regarding `CCn1c(=O)[nH]/c(=N\c2ccc(Oc3cccnn3)cc2)n(Cc2ccc(Cl)cc2)c1=O` [Compound I-2611], the 50% inhibitory concentration (IC50) turned out to be 14 nM.
`O=c1[nH]/c(=N\c2ccc(Oc3ncns3)cc2)n(Cc2ccc(Cl)cc2)c(=O)n1CC(CO)CO` [Compound I-2521]: the half-inhibitory concentration (IC50) amounted to 5 nM.
Take `Cc1ccc(Cn2c(=O)n(C)c(=O)[nH]/c2=N\c2ccc(Oc3cc(C(=O)O)ccn3)cc2)cc1` [Compound I-2343]: the IC50 worked out at 19 nM.
Take `COC(=O)[C@@H](C)Cn1c(=O)[nH]/c(=N\c2ccc(Oc3ccc(OC)nc3)cc2)n(Cc2ccc(C)cc2)c1=O` [Compound I-1522]: the IC50 stood at 5 nM.
Turning to `COC(=O)[C@@H](C)Cn1c(=O)[nH]/c(=N\c2ccc(OC(C)C)c(C)c2)n(Cc2ccc(Br)cc2)c1=O` [Compound I-0865], the IC50 worked out at 17 nM.
